{"source": "patent EP0287128A1", "about": "“Antitumor agent” (RESEARCH CORPORATION TECHNOLOGIES, INC., priority 1987, dated 1988)", "key": {"Lewis lung carcinoma": {"tested_on": "Lewis lung carcinoma", "assay": "in vivo", "text": "(§1) The tumor tissue was obtained from mice bearing 7 to 10 day old tumors. To obtain the tumors, the animals were sacrificed by cervical dislocation. Tumors were removed aseptically and placed into petri dishes containing ice-cold phosphate buffered saline. Tumors were debrided, necrotic tissue was removed and viable tissue was cut into 2-3 mm fragments. These fragments were loaded into 13-gauge trochars for implantation. Animals were weighed prior to each i.p. injection, which began one day after implantation unless otherwise noted, so that the volume of injection could be adjusted to their individual weight.\n(§2) Animals were implanted with Lewis lung carcinoma. Five animals were given FdC (12mg/kg) + H₄U 25mg/kg + BAU 9mg/kg 1/day × 7 days starting on day 1. Comparisons included FUra (25mg/kg) and FUra + BAU (10mg/kg).\n(§3) Animals were implanted with Lewis lung carcinoma. Seven animals were given FdC (12mg/kg) + H₄U (25mg/kg) + BAU (30mg/kg). Comparisons included FUra 25 mg/kg and FUra + BAU (30mg/kg). The treatment schedule was as in Example 1A.\n(§4) Animals were implanted with Lewis lung carcinoma. The treatment schedule was as described above. A comparison was made with FdU tested at its maximum tolerated dose, 75mg/kg. […] \"Day of breakout\" indicates the day tumor growth was first noticed in a group of animals in which tumor growth was arrested or in which tumor regression occurred.\n(§5) Mice were implanted bilaterally with Lewis lung carcinoma (see Table 3).\n(§6) Animals were implanted with Lewis lung carcinoma (see Table 4)."}, "[1]": {"tested_on": "mammary adenocarcinoma-755 in its ascitic form", "assay": "Mammary adenocarcinoma-755, ascitic form, injected i.p. into mice", "format": "in vivo, BD2F₁ mice", "conditions": "for Day of Death / # Cures /6 mice / % Cures / mean day of death / Maximum Weight Loss / T/C: Table 7; for Day of Death: individual animals; for Day of Death / # Cures /6 mice / % Cures / mean day of death / T/C: mg/kg: FdC 12, H4U 25, BAU 10, FUra 26 (with BAU); for Maximum Weight Loss: mg/kg: FdC 12, H4U 25, BAU 10, FUra 26 (with BAU; alone not given); for T/C: not including cures", "text": "Forty-eight hours later (day 2) treatment 1/day × 7) was initiated."}, "in vivo": {"assay": "in vivo", "conditions": "mouse, in vivo", "text": "as §1, §2, §3, §4, §5, §6"}, "[2]": {"conditions": "Example 2, BAU 30 mg/kg, H4U 25 mg/kg, administered without a fluorinated pyrimidine analog"}, "[3]": {"conditions": "Table 3, one cycle (I) or no cycle mark, mg/kg: FdU 70, FdC 12, H4U 25, BAU 30 where given"}}, "data": [{"smiles": "O=c1[nH]c(=O)n(COCCO)cc1Cc1ccccc1", "note": "[BAU, benzacyclouridine]", "values": [{"measurement": "cures", "setting": "Lewis lung carcinoma; [2]", "result": "no cures"}, {"measurement": "mean day of death", "setting": "Lewis lung carcinoma; [2]", "result": "no increase"}, {"measurement": "tumor inhibition", "setting": "Lewis lung carcinoma; [2]", "result": "no significant tumor inhibition"}]}, {"smiles": "O=c1[nH]cc(F)c(=O)[nH]1", "note": "[FUra, 5-fluorouracil]", "values": [{"measurement": "# of cures/6", "setting": "[1]; Table 6, inoculum 10^7 cells, mg/kg: FdC 12, H4U 25, BAU 10, FUra 25, FdU 60", "result": "No cures"}, {"measurement": "Day of Death", "setting": "[1]; inoculum 5 x 10^5 cells", "result": "17,18 21,22"}, {"measurement": "Day of Death", "setting": "[1]; inoculum 10^5 cells", "result": "17,19 21,33"}, {"measurement": "# Cures /6 mice", "setting": "[1]; inoculum 5 x 10^5 cells", "result": 1}, {"measurement": "% Cures", "setting": "[1]; inoculum 5 x 10^5 cells", "result": 17, "unit": "%"}, {"measurement": "mean day of death", "setting": "[1]; inoculum 5 x 10^5 cells, control 12.5", "result": 19.2}, {"measurement": "Maximum Weight Loss", "setting": "[1]; inoculum 5 x 10^5 cells", "result": 17.4}, {"measurement": "# Cures /6 mice", "setting": "[1]; inoculum 10^5 cells", "result": 2}, {"measurement": "% Cures", "setting": "[1]; inoculum 10^5 cells", "result": 33, "unit": "%"}, {"measurement": "mean day of death", "setting": "[1]; inoculum 10^5 cells", "result": 20.0}, {"measurement": "Maximum Weight Loss", "setting": "[1]; inoculum 10^5 cells", "result": 17.0}, {"measurement": "T/C", "setting": "[1]; inoculum 5 x 10^5 cells", "result": 1.51}, {"measurement": "T/C", "setting": "[1]; inoculum 10^5 cells", "result": 1.57}, {"measurement": "cures", "setting": "Lewis lung carcinoma; Examples 1A and 1B together, i.p. 1/day x 7 days from day 1, mg/kg: FdC 12, H4U 25, BAU 9 or 30, FUra 25", "result": "No cures"}]}, {"smiles": "O=c1[nH]c(=O)n([C@H]2C[C@H](O)[C@@H](CO)O2)cc1F", "note": "[FdU, 5-fluorodeoxyuridine]", "values": [{"measurement": "% Tumor Inhibition", "setting": "Lewis lung carcinoma; Table 3, day 10, one cycle (I) or no cycle mark, mg/kg: FdU 70, FdC 12, H4U 25, BAU 30 where given", "result": 83, "unit": "%"}, {"measurement": "% Tumor Inhibition", "setting": "Lewis lung carcinoma; Table 3, day 14, one cycle (I) or no cycle mark, mg/kg: FdU 70, FdC 12, H4U 25, BAU 30 where given", "result": 74, "unit": "%"}, {"measurement": "% Tumor Inhibition", "setting": "Lewis lung carcinoma; Table 3, day 18, one cycle (I) or no cycle mark, mg/kg: FdU 70, FdC 12, H4U 25, BAU 30 where given", "result": 58, "unit": "%"}, {"measurement": "% Tumor Inhibition", "setting": "Lewis lung carcinoma; Table 3, day 22, one cycle (I) or no cycle mark, mg/kg: FdU 70, FdC 12, H4U 25, BAU 30 where given", "result": 42, "unit": "%"}, {"measurement": "% Tumor Inhibition", "setting": "Lewis lung carcinoma; Table 3, day 26, one cycle (I) or no cycle mark, mg/kg: FdU 70, FdC 12, H4U 25, BAU 30 where given", "result": 31, "unit": "%"}, {"measurement": "% Tumor Inhibition", "setting": "Lewis lung carcinoma; Table 3, day 38, one cycle (I) or no cycle mark, mg/kg: FdU 70, FdC 12, H4U 25, BAU 30 where given", "result": 19, "unit": "%"}, {"measurement": "T/C", "setting": "Lewis lung carcinoma; Table 3, mean day of death T/C, one cycle (I) or no cycle mark, mg/kg: FdU 70, FdC 12, H4U 25, BAU 30 where given, * not including cures", "result": 1.24}, {"measurement": "# Cures /6", "setting": "Lewis lung carcinoma; [3]", "result": 0}, {"measurement": "# Toxic Deaths /6", "setting": "Lewis lung carcinoma; [3]", "result": 0}, {"measurement": "Maximum % Weight Loss", "setting": "Lewis lung carcinoma; [3]", "result": 19, "unit": "%"}, {"measurement": "Mean Day of Death", "setting": "Lewis lung carcinoma; Table 3, one cycle (I) or no cycle mark, mg/kg: FdU 70, FdC 12, H4U 25, BAU 30 where given, * not including cures, control 21.1", "result": 26.0}, {"measurement": "MTD at 7 days", "setting": "in vivo", "result": 75, "unit": "mg/kg"}]}, {"smiles": "O=C1NC(O)CCN1[C@@H]1O[C@H](CO)[C@@H](O)[C@H]1O", "note": "(some centres unmarked) [H₄U, tetrahydrouridine]", "values": [{"measurement": "cures", "setting": "Lewis lung carcinoma; [2]", "result": "no cures"}, {"measurement": "mean day of death", "setting": "Lewis lung carcinoma; [2]", "result": "no increase"}, {"measurement": "tumor inhibition", "setting": "Lewis lung carcinoma; [2]", "result": "no significant tumor inhibition"}]}]}
